Measurements published in US6043045A, “Screening methods for the identification of novel antibiotics” (The Scripps Research Institute, priority 1998, dated 2000).
“Also recorded” adds a separate entry of the source.

Legend:
KinA~P = molecular target: T1, KinA~P (Bacillus subtilis, UniProt P16497); assay: Dephosphorylation of preformed KinA~P; type: biochemical; conditions: oleic acid 2.5×10^-4M, no SpoOF
T1 construct: made in house
Method: Next, the ability of oleic acid to enhance the dephosphorylation of preformed KinA~P was investigated. Autophosphorylation of in the presence of [γ^32 P]ATP was allowed to proceed for 60 minutes in the absence of SpoOF. At the end of this incubation, the reaction was divided into two aliquots, one receiving oleic acid to a final concentration of 2.5×10^-4M. Samples from each were withdrawn at timed intervals, fractionated on polyacrylamide gels, the KinA bands excised and the incorporated radioactivity determined.

KinA [1] = molecular target: T2, KinA (Bacillus subtilis, UniProt P16497); assay: biochemical; type: biochemical
T2 construct: made in house
T2 sequence (P16497 1-606): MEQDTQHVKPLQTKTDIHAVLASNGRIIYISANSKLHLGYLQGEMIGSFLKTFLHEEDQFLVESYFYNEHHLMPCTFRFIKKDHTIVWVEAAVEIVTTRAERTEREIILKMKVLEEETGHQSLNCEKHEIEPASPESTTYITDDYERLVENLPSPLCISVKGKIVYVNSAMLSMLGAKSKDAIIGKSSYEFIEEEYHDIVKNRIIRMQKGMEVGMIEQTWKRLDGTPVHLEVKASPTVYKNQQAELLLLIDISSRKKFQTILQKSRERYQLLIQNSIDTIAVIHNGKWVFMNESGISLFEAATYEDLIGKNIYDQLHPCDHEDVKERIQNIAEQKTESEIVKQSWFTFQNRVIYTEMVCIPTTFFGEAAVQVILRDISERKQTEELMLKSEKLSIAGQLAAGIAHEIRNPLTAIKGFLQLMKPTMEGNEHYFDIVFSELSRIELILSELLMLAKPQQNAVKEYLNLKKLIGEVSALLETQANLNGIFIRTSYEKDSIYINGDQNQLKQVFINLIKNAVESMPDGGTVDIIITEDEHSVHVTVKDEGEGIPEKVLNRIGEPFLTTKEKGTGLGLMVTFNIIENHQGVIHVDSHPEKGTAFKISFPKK
Method: The reactions were performed in a 25 μl final volume containing 100 mM Tris pH 8.0, 100 mM KCl, 2 mM MgCl2, 0.5 mM dithiothreitol, 10% (v/v) glycerol, 0.1 % (w/v) gelatin, 4% (v/v) ethanol, 200 μM total ATP containing approximately 1.5 μCi [gamma-^32 P]ATP (New England Nuclear, 6000 Ci/mMol, 150 μCi/ml), 300 μM SpoOF protein and 0.04 μM KinA protein (Perego, et al., J. Bacteriol. 171: 6187-6196 (1989)) unless otherwise indicated. Fatty acids were added to varying final concentration from solutions made with 100% ethanol (the 4% ethanol concentration in the reaction mixture reflects these addition, or in the case of controls, the addition of ethanol alone). The reactions were initiated by addition of the ATP and incubated for thirty minutes at room temperature.
When higher KinA concentrations were used, the time of incubation was adjusted accordingly. The reactions were stopped by adding an equal volume of loading dye (0.25 M Tris pH 6.8, 20% (v/v) glycerol, 1% sodium dodecyl sulfate (w/v), 140 mM β-mercaptoethanol, 0.05% (w/v) bromophenol blue) and aliquots were loaded onto polyacrylamide gels (5% stacking, 15% separating, using the buffer system of Laemmi, Id., 1970).
The gels were run for approximately 16 hours at 10 mA constant current. The gels were covered with plastic wrap and subjected to autoradiography using Kodak XOmat RP1 film. Quantitation of activity was accomplished by cutting gels slices containing the appropriate phosphoprotein (usually SpoOF~P, see Section E below) and counting the Cerenkov radiation in a Beckman LF7500 scintillation counter (Beckman Instruments, Fullerton, Calif.). Equal-sized slices from blank areas of the gels were also counted and used to adjust for background. Percentage of activity was calculated using the value of the control reaction as 100%.
To quantify our initial assessment of inhibitory properties, the I0.5 values (at 4×10^-8 M KinA) were determined for each of the fatty acids. […] For example, the percent activity at an indicated oleic acid concentration is the ratio (×100) of the incorporation of ^32 P (from [γ^32 P]ATP) into the SpoOF protein relative to the incorporation in the control reaction containing no inhibitor. Typically, data are gathered from at least two different experiments. The I0.5 value is the concentration--e.g., the oleic acid concentration--corresponding to 50% activity as determined from the relevant graph.

KinA [2] = molecular target: T2, KinA; assay: KinA autophosphorylation assay at higher KinA concentration and ATP competition series; type: biochemical
Method: (§1) The above-noted experiments were performed using a KinA concentration of […]. At this concentration, a band corresponding to KinA~P was not visible on the autoradiographs. Therefore, it could not be determined if the inhibition occurred at the KinA autophosphorylation step or at the phosphotransferase reaction between KinA~P and SpoOF. To address this question, assays were performed using a higher KinA concentration (1×10^-6 M). The prevention of stable autophosphorylation of KinA by oleic acid was confirmed. Data was gathered which verified the incorporation of ^32 P from [γ^32 P]ATP into the KinA protein in the presence of SpoOF and differing concentrations of oleic acid (not shown). The assay was performed as disclosed hereinabove, except that the KinA concentration was increased to 1×10^-6 M and the incubation time was shortened to three minutes.
(§2) To determine the nature of the fatty acid inhibition of autophosphorylation, three series of reactions were performed. In the first series, no oleic acid was present; the second contained 2.5×10^-5 M oleic acid; the third contained 7.0×10^-5 M oleic acid. […] Even at the lowest oleic acid concentration (2.5×10^-5 M) and highest ATP level (2×10^-3 M), the KinA was greater than 95% inhibited.

KinA [3] = molecular target: T2, KinA; assay: Test whether fatty acids serve as substrate for KinA-catalyzed phosphorylation (heptane partition); type: biochemical; conditions: KinA 2 μM, no SpoOF, radioactivity in organic phase
Method: To determine if fatty acids served as a substrate for KinA-catalyzed phosphorylation, the following method was used. The above reaction conditions were employed except that no SpoOF was present; the KinA was at 2 μM and the reactions incubated for 5 minutes prior to the addition of fatty acids. After this initial incubation, to allow autophosphorylation to occur, 48 μl aliquots were added to tubes containing (a) two μl ethanol; (b) 2 μl of 2% oleic acid; and (c) 2 μl of 2% palmitic acid. The reactions were allowed to incubate 10 minutes after which time 0.5 ml H2 O and 0.5 ml heptane were added to each. After 10 minutes at room temperature, the phases were separated by centrifugation. The aqueous phases were washed with H2 O-saturated heptane and the heptane phases washed with heptane-saturated H2 O. The Cerenkov radiation in each phase and wash was determined.
Oleic acid was added to a reaction mixture containing KinA~[^32 P], and after a suitable incubation, the mixture was separated into organic and aqueous phases (as described above). Under the conditions used, fatty acid species would partition into the organic phase leaving the KinA~P and unincorporated [γ^32 P]ATP in the aqueous phase. The amount of radioactivity in the organic phase containing oleic acid was negligible and no different from the amount present in the control reactions (data not shown).

[4] = substrate: Nc1ncnc2c1ncn2[C@@H]1O[C@H](COP(=O)(O)OP(=O)(O)OP(=O)(O)O)[C@@H](O)[C@H]1O; assay: Phosphorylation of His-SpoOF immobilized on Ni-resin by KinA (high throughput assay); type: biochemical, Bacillus subtilis; conditions: 1 μM KinA, 22° C., 20 min
Method: Phosphorylation of immobilized His-SpoOF was carried out using the MultiScreen 96-well filtration plate (0.65 μm, type DVPP) from Millipore (Bedford, Mass.). The removal of liquid from the wells of the filtration plate was done with the vacuum manifold from Millipore. The His-SpoOF resin (25%, v/v) was placed into individual wells of the filtration plate and washed twice with 200 μl buffer A. A total volume of 80 μl of buffer A containing the indicated amounts of KinA, ATP, and [γ-^32 P]ATP was added to the wells.
The plate was then incubated for the indicated period of time at 22° C. with gentle shaking. The reaction was terminated by removal of the reaction mixture from the wells followed by three washes of the resin with buffer A.
The resin was then washed three times with buffer A containing 30 mM imidazole with 5 min. incubation/shaking and another three times with buffer A only. […]
For analysis by scintillation counting, 80 μl of 0.2 N HCl was added to each of the wells and the plate was incubated at 55° C. with gentle shaking for 1 hour. […] To each of the wells of the MicroFluor plate, 150 μl of MicroScint-40 (Packard, Meriden, Conn.) was added and the radioactivity was counted using the TopCount from Packard. […]

[5] = substrate: Nc1ncnc2c1ncn2[C@@H]1O[C@H](COP(=O)(O)OP(=O)(O)OP(=O)(O)O)[C@@H](O)[C@H]1O; assay: KinA autophosphorylation assay at higher KinA concentration and ATP competition series; type: biochemical, Bacillus subtilis; conditions: other: KinA
Method: as §1, §2

CCCCCCCC/C=C\CCCCCCCC(=O)O [cis-9-octadecanoic]
loss of 32P from preformed KinA~P versus reaction without oleic acid (KinA~P): no significant difference | inhibitory effect on KinA in vitro (in words) (KinA [1]): potent inhibitors | IC50 (KinA [1]; Table 4, I0.5 at 4×10^-8 M KinA, 32P incorporation into SpoOF, read-out: Fatty Acid Inhibitors of KinA Activity (category by I0.5)): < 70 µM | inhibition of KinA phosphorylation of SpoOF (in words) (KinA [1]; tested at 0.08% final concentration): essentially complete inhibition | inhibition of KinA (KinA [2]; 2.5×10^-5 M oleic acid, highest ATP level 2×10^-3 M): greater than 95% | competition of inhibition with ATP (KinA [2]; ATP 2×10^-5 to 2×10^-3 M, oleic acid 2.5×10^-5 and 7.0×10^-5 M): ATP is not competitive with oleic acid inhibition | phosphotransfer from KinA~P to SpoOF (KinA [2]; KinA 1×10^-6 M): can also inhibit the phosphotransfer from KinA~P to SpoOF | formation of KinA~P and SpoOF~P (KinA [2]; KinA 1×10^-6 M, 3 min, differing oleic acid concentrations): inhibits the formation of KinA~P and SpoOF~P in a concentration-dependent fashion; also recorded: acts to inhibit the autophosphorylation of KinA | substrate for KinA catalyzed phosphorylation (KinA [3]): did not serve as a substrate

B1: KinA (histidine protein kinase) (Bacillus subtilis subsp. subtilis str. 168) (protein)
chain: T2 sequence (P16497 1-606)
notes: made in house; host or cells: E. coli (printed "E. coil")
Km ([4]; other: SDS-PAGE analysis): 72 µM | Km ([4]; other: scintillation counting): 70 µM

B2: KinA (Bacillus subtilis subsp. subtilis str. 168) (protein)
chain: T2 sequence (P16497 1-606)
notes: made in house
Km [5]: 130 µM
